From the NIST ThermoML archive (doi:10.1016/j.jct.2006.08.009)

Assay: mn = molality of the nth substance listed, in mol/kg
Conditions: 350 kPa, Liquid; for apparent molar heat capacity: Extra sensitive DSC

OC[C@@H](O)[C@@H](O)[C@@H](O)CO [SRS-1,2,3,4,5-pentanepentol] + O
Conditions | apparent molar heat capacity [J/K/mol] | mass density [kg/m3]
278.15 K, m1 = 0.0196 | 335 | 1001.15
278.15 K, m1 = 0.0506 | 329.5 | 1002.66
278.15 K, m1 = 0.1042 | 335.2 | 1005.31
278.15 K, m1 = 0.2591 | 334.4 | 1012.83
278.15 K, m1 = 0.5092 | 334.9 | 1024.77
278.15 K, m1 = 0.9969 | 336.5 | 1046.03
278.15 K, m1 = 1.998 | 336.2 | 1084.53
278.15 K, m1 = 3.177 | 339.7 | 1119.46
283.15 K, m1 = 0.0196 | 354 | 1000.8
283.15 K, m1 = 0.0506 | 343 | 1002.31
283.15 K, m1 = 0.1042 | 350.4 | 1004.94
283.15 K, m1 = 0.2591 | 349.6 | 1012.39
283.15 K, m1 = 0.5092 | 349.7 | 1024.17
283.15 K, m1 = 0.9969 | 350.6 | 1045.12
283.15 K, m1 = 1.998 | 349.4 | 1083.19
283.15 K, m1 = 3.177 | 351.5 | 1117.64
288.15 K, m1 = 0.0196 | 368 | 1000.18
288.15 K, m1 = 0.0506 | 354.3 | 1001.7
288.15 K, m1 = 0.1042 | 362 | 1004.3
288.15 K, m1 = 0.2591 | 361.4 | 1011.68
288.15 K, m1 = 0.5092 | 361.4 | 1023.3
288.15 K, m1 = 0.9969 | 361.7 | 1044.05
288.15 K, m1 = 1.998 | 359.9 | 1081.81
288.15 K, m1 = 3.177 | 361.1 | 1115.96
293.15 K, m1 = 0.0196 | 377 | –
293.15 K, m1 = 0.0506 | 365.3 | –
293.15 K, m1 = 0.1042 | 371.7 | –
293.15 K, m1 = 0.2591 | 371.2 | –
293.15 K, m1 = 0.5092 | 371 | –
293.15 K, m1 = 0.9969 | 371 | –
293.15 K, m1 = 1.998 | 368.5 | –
293.15 K, m1 = 3.177 | 369.4 | –
298.15 K, m1 = 0.0196 | 385 | 998.09
298.15 K, m1 = 0.0506 | 375.1 | 999.6
298.15 K, m1 = 0.1042 | 380.2 | 1002.18
298.15 K, m1 = 0.2591 | 379.6 | 1009.48
298.15 K, m1 = 0.5092 | 379.3 | 1020.79
298.15 K, m1 = 0.9969 | 379 | 1041.23
298.15 K, m1 = 1.998 | 376.1 | 1078.43
298.15 K, m1 = 3.177 | 376.6 | 1112.13
303.15 K, m1 = 0.0196 | 392 | –
303.15 K, m1 = 0.0506 | 383.2 | –
303.15 K, m1 = 0.1042 | 387.5 | –
303.15 K, m1 = 0.2591 | 386.8 | –
303.15 K, m1 = 0.5092 | 386.4 | –
303.15 K, m1 = 0.9969 | 385.9 | –
303.15 K, m1 = 1.998 | 382.8 | –
303.15 K, m1 = 3.177 | 383 | –
308.15 K, m1 = 0.0196 | 397 | 995.08
308.15 K, m1 = 0.0506 | 389.5 | 996.56
308.15 K, m1 = 0.1042 | 393.6 | 999.1
308.15 K, m1 = 0.2591 | 393 | 1006.35
308.15 K, m1 = 0.5092 | 392.6 | 1017.44
308.15 K, m1 = 0.9969 | 392 | 1037.61
308.15 K, m1 = 1.998 | 388.8 | 1074.35
308.15 K, m1 = 3.177 | 388.8 | 1107.66
313.15 K, m1 = 0.0196 | 403 | –
313.15 K, m1 = 0.0506 | 395.7 | –
313.15 K, m1 = 0.1042 | 399.2 | –
313.15 K, m1 = 0.2591 | 398.6 | –
313.15 K, m1 = 0.5092 | 398.2 | –
313.15 K, m1 = 0.9969 | 397.4 | –
313.15 K, m1 = 1.998 | 394.1 | –
313.15 K, m1 = 3.177 | 393.9 | –
318.15 K, m1 = 0.0196 | 408 | 991.29
318.15 K, m1 = 0.0506 | 401.1 | 992.73
318.15 K, m1 = 0.1042 | 404.3 | 995.28
318.15 K, m1 = 0.2591 | 403.7 | 1002.45
318.15 K, m1 = 0.5092 | 403.2 | –
318.15 K, m1 = 0.9969 | 402.3 | –
318.15 K, m1 = 1.998 | 398.9 | –
318.15 K, m1 = 3.177 | 398.6 | –
